Reference: patent publication US20050112696A1, “Compositions, methods and assays related to secretase cleavage specificity” (The University of Texas Southwestern Medical Center, priority 2003, published 2005)
Entries after “also recorded” stand apart in the source; their conditions may differ.

B1: F-spondin: secreted multi-domain protein that promotes neural cell adhesion and neurite extension; extracellular ligand of APP (protein, UniProt Q9HCB6 29-807, looked up)
Spondin-1: FSDETLDKVPKSEGYCSRILRAQGTRREGYTEFSLRVEGDPDFYKPGTSYRVTLSAAPPSYFRGFTLIALRENREGDKEEDHAGTFQIIDEEETQFMSNCPVAVTESTPRRRTRIQVFWIAPPAGTGCVILKASIVQKRIIYFQDEGSLTKKLCEQDSTFDGVTDKPILDCCACGTAKYRLTFYGNWSEKTHPKDYPRRANHWSAIIGGSHSKNYVLWEYGGYASEGVKQVAELGSPVKMEEEIRQQSDEVLTVIKAKAQWPAWQPLNVRAAPSAEFSVDRTRHLMSFLTMMGPSPDWNVGLSAEDLCTKECGWVQKVVQDLIPWDAGTDSGVTYESPNKPTIPQEKIRPLTSLDHPQSPFYDPEGGSITQVARVVIERIARKGEQCNIVPDNVDDIVADLAPEEKDEDDTPETCIYSNWSPWSACSSSTCDKGKRMRQRMLKAQLDLSVPCPDTQDFQPCMGPGCSDEDGSTCTMSEWITWSPCSISCGMGMRSRERYVKQFPEDGSVCTLPTEETEKCTVNEECSPSSCLMTEWGEWDECSATCGMGMKKRHRMIKMNPADGSMCKAETSQAEKCMMPECHTIPCLLSPWSEWSDCSVTCGKGMRTRQRMLKSLAELGDCNEDLEQVEKCMLPECPIDCELTEWSQWSECNKSCGKGHVIRTRMIQMEPQFGGAPCPETVQRKKCRIRKCLRNPSIQKLRWREARESRRSEQLKEESEGEQFPGCRMRPWTAWSECTKLCGGGIQERYMTVKKRFKSSQFTSCKDKKEIRACNVHPC

What was measured:
[1] = tested on: Ga14-Tip60 dependent transcription mediated by APP (γ-secretase cleavage); test: Ga14-Tip60 transactivation assay, cells co-transfected with APP and Fe65; format: cell-based; settings: HEK293 cells; DAPT 2 and 10 μM; inhibition was incomplete; FIG. 2C
Experimental: (§1) HEK293, HeLa and COS7 cells were transfected at 50 to 80% confluency in 6-well plates using Fugene6 reagent (Roche). For Ga14-Tip60 transactivation assays, HEK293 cells were co-transfected with five plasmids: (1) pG5E1B-luc=0.15 μg; (2) pCMV-LacZ=0.10 μg; (3) pM-Tip60=0.5 μg; (4) pCMV-FE65=0.5 μg; and (5) 0.05-1.0 μg pCMV-APP, 0.025-0.5 μg pCMV-Sport6-APLP1, or 0.05-1.0 μg pcDNA3.1-APLP2 as indicated. For the Fe65 titration experiments, HEK293 cells were cotransfected with five plasmids: (1) pG5E1B-luc=0.15 μg; (2) pCMV-LacZ=0.10 μg; (3) pM-Tip60=0.5 μg; (4) 0.5 μg of APP, 0.25 μg of APLP1, or 0.5 μg of APLP2; and (5) 0-2.0 μg pCMV-Fe65. Cells were harvested 2 days after transfection in 0.25 ml/well of reporter lysis buffer (Promega), and their Luciferase and β-galctosidase activities were determined with the Promega luciferase assay kit using a chemiluminescence reader from Berthold, and with the O-nitrophenyl-D-galacto-pyranoside assay for β-galactosidase, respectively. […]
(§2) For all three proteins (APP, APLP1, and APLP2), a bell-shaped dose-response curve of transactivation that depended on APP or an APLP was observed (FIG. 2A). […] Again, a dose-dependent, highly specific transactivation of Ga14-dependent transcription was detected. […]

[2] = tested on: Ga14-Tip60 dependent transcription mediated by APLP1 (γ-secretase cleavage); test: Ga14-Tip60 transactivation assay, cells co-transfected with APLP1 and Fe65; format: cell-based; settings: HEK293 cells; DAPT 2 and 10 μM; inhibition was incomplete; FIG. 2C
Experimental: as §1, §2

[3] = tested on: Ga14-Tip60 dependent transcription mediated by APLP2 (γ-secretase cleavage); test: Ga14-Tip60 transactivation assay, cells co-transfected with APLP2 and Fe65; format: cell-based; settings: HEK293 cells; DAPT 2 and 10 μM; inhibition was incomplete; FIG. 2C
Experimental: as §1, §2

γ-secretase = test: Immunoblotting of C-terminal fragments (CTFs) in transfected HEK293 cells; format: cell-based
Experimental: HEK293, HeLa and COS7 cells were transfected at 50 to 80% confluency in 6-well plates using Fugene6 reagent (Roche). For Ga14-Tip60 transactivation assays, HEK293 cells were co-transfected with five plasmids: (1) pG5E1B-luc=0.15 μg; (2) pCMV-LacZ=0.10 μg; (3) pM-Tip60=0.5 μg; (4) pCMV-FE65=0.5 μg; and (5) 0.05-1.0 μg pCMV-APP, 0.025-0.5 μg pCMV-Sport6-APLP1, or 0.05-1.0 μg pcDNA3.1-APLP2 as indicated. For the Fe65 titration experiments, HEK293 cells were cotransfected with five plasmids: (1) pG5E1B-luc=0.15 μg; (2) pCMV-LacZ=0.10 μg; (3) pM-Tip60=0.5 μg; (4) 0.5 μg of APP, 0.25 μg of APLP1, or 0.5 μg of APLP2; and (5) 0-2.0 μg pCMV-Fe65. Cells were harvested 2 days after transfection in 0.25 ml/well of reporter lysis buffer (Promega), and their Luciferase and β-galctosidase activities were determined with the Promega luciferase assay kit using a chemiluminescence reader from Berthold, and with the O-nitrophenyl-D-galacto-pyranoside assay for β-galactosidase, respectively. The luciferase activity was standardized by the β-galactosidase activity to control for transfection efficiency and further normalized with the transactivation level with cells expressing no APPs or Fe65. Values shown are averages of transactivation assays performed in triplates. For immunoblotting analyses, HEK293 were transfected with 1 μg expression plasmids encoding APP, APLP1, APLP2, SynCam, or neurexin 1β, with or without 0.25 μg of BACE 1 expression vector. For APLP1 cleavage experiments, 1 μg of APLP1 or APP was cotransfected with BACE (0.25 μg and 0.5 μg) or ADAM 9 (0.5 μg and 1.0 μg) in HEK293, HeLa and COS cells. The cell extracts or media were harvested 24 hours after the transfection. Where indicated, γ-secretase inhibitor IX (DAPT; Calbiochem) was added (2 μM final concentration) 6 hrs before harvesting the cells.
SDS-PAGE and Immunoblotting experiments were performed using standard procedures well know to one of ordinary skill in the are with either regular SDS gels or tricine gels. Lanes were loaded with ˜20 μg of protein from whole cell extracts harvested in sample buffer, and analysed by immunoblotting after SDS-PAGE using antibody dilutions of 1:1,000-2,000 for primary and 1:10,000 HRP conjugated goat-anti-rabbit secondary antibodies (ICN). For immunoblotting analysis of secreted proteins, supernatants from transfected cells (30 μl with approximately 5 μg protein) were loaded per lane.
In the next set of experiments these antibodies were employed to probe for APP, APLP1, and APLP2 cleavage in cells that either expressed these proteins alone or in combination with BACE 1 (FIG. 4). As negative controls, two other neuronal cell-surface proteins, […] (Nrx1β) and SynCAM (36,37,39) were examined. For each of the five proteins studied, six conditions were investigated: HEK293 control cells (lane 1), transfected cells only expressing BACE 1 (lane 2), or cells transfected either with APP, APLP1, APLP2, neurexin 1β (Nrx1β), or SynCAM alone (lanes 3 and 5) or together with BACE 1 (lanes 4 and 6) were incubated in the absence (lanes 1-4) or presence of the γ-secretase inhibitor DAPT ([…]; lanes 5-6). Transfected proteins (indicated on the right) were examined by immunoblotting (20 μg cell protein/lane) using regular SDS-PAGE (top panel for each protein) to monitor the full-length proteins (FL), or by tricine gel electrophoresis to detect their CTFs (bottom panel for each protein). […]

[4] = tested on: central APP domain (CAD) of APP, APLP1 and APLP2; test: F-spondin binding to the central APP domain (CAD); settings: extracellular ligand; reelin domain or reelin and spondin domains sufficient
[5] = biological target: β-secretase cleavage sites of APP (Homo sapiens, UniProt P05067); test: Effect of F-spondin binding on β-secretase cleavage of APP
Sequence of β-secretase cleavage sites of APP (P05067 18-770): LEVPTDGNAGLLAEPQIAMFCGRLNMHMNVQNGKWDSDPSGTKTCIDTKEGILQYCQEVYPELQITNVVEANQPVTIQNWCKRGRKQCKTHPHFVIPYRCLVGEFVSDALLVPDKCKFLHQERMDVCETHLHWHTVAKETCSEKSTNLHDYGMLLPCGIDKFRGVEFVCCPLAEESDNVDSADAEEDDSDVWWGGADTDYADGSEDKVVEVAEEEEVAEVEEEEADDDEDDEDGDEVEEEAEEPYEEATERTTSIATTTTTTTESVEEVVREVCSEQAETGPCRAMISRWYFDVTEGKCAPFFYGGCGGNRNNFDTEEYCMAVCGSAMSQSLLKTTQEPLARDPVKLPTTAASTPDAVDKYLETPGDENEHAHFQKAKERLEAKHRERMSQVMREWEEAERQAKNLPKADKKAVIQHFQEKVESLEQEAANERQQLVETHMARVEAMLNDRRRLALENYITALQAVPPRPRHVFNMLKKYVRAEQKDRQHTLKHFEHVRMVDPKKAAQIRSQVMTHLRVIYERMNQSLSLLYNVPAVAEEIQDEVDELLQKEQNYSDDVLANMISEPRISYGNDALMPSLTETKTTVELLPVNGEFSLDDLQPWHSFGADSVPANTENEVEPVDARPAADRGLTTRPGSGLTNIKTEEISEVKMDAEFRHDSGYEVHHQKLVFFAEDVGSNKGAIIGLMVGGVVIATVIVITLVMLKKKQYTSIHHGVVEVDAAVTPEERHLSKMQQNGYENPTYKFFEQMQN

| Molecule | inhibition of transactivation mediated by APP [1] | inhibition of transactivation mediated by APLP1 [2] | inhibition of transactivation mediated by APLP2 [3] | CTFs of APLP1 upon DAPT treatment (γ-secretase; HEK293 cells transfected with APLP1, with or without BACE 1, DAPT (2 mM [sic]), FIG. 4) | CTFs of APLP2 upon DAPT treatment (γ-secretase; HEK293 cells transfected with APLP2, with or without BACE 1, DAPT (2 mM [sic]), FIG. 4) | CTFs of APP upon DAPT treatment (γ-secretase; HEK293 cells transfected with APP, with or without BACE 1, DAPT added 6 hrs before harvesting, tricine gel immunoblot) | CTFs of neurexin 1β/APP hybrid upon DAPT treatment (γ-secretase; HEK293 cells transfected with Nrx1β/APP hybrid, with or without BACE 1, FIG. 6B) | CTFs of neurexin 1β upon DAPT treatment (γ-secretase; HEK293 cells transfected with neurexin 1β, DAPT (2 mM [sic]), said to be most likely an artifact, FIG. 4) | binding to the central APP domain (CAD) of APP, APLP1 and APLP2 [4] | effect of binding on cleavage at the β-secretase cleavage sites [5] |
| --- | --- | --- | --- | --- | --- | --- | --- | --- | --- | --- |
| C[C@H](NC(=O)Cc1cc(F)cc(F)c1)C(=O)N[C@H](C(=O)OC(C)(C)C)c1ccccc1 [DAPT] | Significant inhibition | Significant inhibition | Significant inhibition | very abundant | very abundant | very abundant; also recorded: massive accumulation of CTFs | massive accumulation of CTFs | CTFs were also observed |  |  |
| B1 |  |  |  |  |  |  |  |  | binds | inhibits the cleavage |
